# Results from ChEMBL document CHEMBL1151436, “In vitro evaluation of the activities of telavancin, cefazolin, and vancomycin against methicillin-susceptible and methicillin-resistant Staphylococcus aureus in peritoneal dialysate” (Antimicrob Agents Chemother, 2007).
# The source made the active and inactive calls. No cut-off for these calls is given here.
# Columns and labels:
# Staphylococcus aureus [1] = test: Antibacterial activity against methicillin-susceptible Staphylococcus aureus ATCC 29213 in peritoneal dialysis fluid administered as bolus dose 2 hrs after infection measured after 24 hrs by broth dilution method; type: functional
# Staphylococcus aureus [2] = test: Antibacterial activity against methicillin-resistant Staphylococcus aureus ATCC 33592 in peritoneal dialysis fluid administered as bolus dose 2 hrs after infection measured after 24 hrs by broth dilution method; type: functional
# Staphylococcus aureus [3] = test: Antibacterial activity against methicillin-susceptible Staphylococcus aureus ATCC 29213 in peritoneal dialysis fluid at 10 ug/mL administered as bolus dose 2 hrs after infection measured after 24 hrs by time-kill study; type: functional, organism-based
# [4] = Protein binding in mouse plasma at 0.1 to 100 ug/mL by equilibrium dialysis; type: ADME, cell-free; conditions: read-out: PB (converted)
# Staphylococcus aureus [5] = test: Antibacterial activity against methicillin-susceptible Staphylococcus aureus ATCC 29213 in peritoneal dialysis fluid at 50 ug/mL administered as bolus dose 2 hrs after infection measured after 24 hrs by time-kill study; type: functional, organism-based
# Staphylococcus aureus [6] = test: Antibacterial activity against methicillin-resistant Staphylococcus aureus ATCC 33592 in peritoneal dialysis fluid at 10 ug/mL administered as bolus dose 2 hrs after infection measured after 24 hrs by time-kill study; type: functional, organism-based
# Staphylococcus aureus [7] = test: Antibacterial activity against methicillin-resistant Staphylococcus aureus ATCC 33592 in peritoneal dialysis fluid at 50 ug/mL administered as bolus dose 2 hrs after infection measured after 24 hrs by time-kill study; type: functional, organism-based
SMILES,MIC (Staphylococcus aureus [1]),MIC (Staphylococcus aureus [2]),Activity (Staphylococcus aureus [3]),fraction unbound [4],Activity (Staphylococcus aureus [5]),Activity (Staphylococcus aureus [6]),Activity (Staphylococcus aureus [7])
Cc1nnc(SCC2=C(C(=O)O)N3C(=O)[C@@H](NC(=O)Cn4cnnn4)[C@H]3SC2)s1 [CEFAZOLIN],0.5 µg/mL,> 16 µg/mL,,,,,
CCCCCCCCCCNCCN[C@@]1(C)C[C@H](O[C@H]2[C@H](Oc3c4cc5cc3Oc3ccc(cc3Cl)[C@@H](O)[C@@H](NC(=O)[C@@H](CC(C)C)NC)C(=O)N[C@@H](CC(N)=O)C(=O)N[C@H]5C(=O)N[C@H]3C(=O)N[C@H](C(=O)N[C@H](C(=O)O)c5cc(O)c(CNCP(=O)(O)O)c(O)c5-c5cc3ccc5O)[C@H](O)c3ccc(c(Cl)c3)O4)O[C@H](CO)[C@@H](O)[C@@H]2O)O[C@@H](C)[C@H]1O [TELAVANCIN],0.25 µg/mL,0.125 µg/mL,Active,0.05,Active,Active,Active
